Here are results for 20 molecules from US8530474B2, “Substituted 6-(1-piperazinyl)-pyridazines as 5-HT6 receptor antagonists” (Janssen Pharmaceutica NV, priority 2008, dated 2013).

Counter-ions that a name gives are not always drawn.

For data set [1], the target named is T1, human H3 receptor (Homo sapiens, UniProt Q9Y5N1).
T1 construct: expressed in transfected cells
The data set can be described thus: In vitro binding assay for human H3 receptor (125I-iodoproxyfan, SK-N-MC cell membranes). Conditions: iodoproxifan 1 nM, Ki converted from IC50. Here is the method:
In vitro Binding Assay for Human H3 Receptor
Briefly, cell pellets from SK-N-MC cells expressing the human H3 receptor were homogenized in 50 mM Tris-HCl/5 mM EDTA and recentrifuged at 30000 g for 30 min. Pellets were rehomogenized in 50 mM Tris/5 mM EDTA (pH 7.4). Membranes were incubated for 1 h at 25° C. with ^125I-iodoproxyfan diluted with cold iodoproxifan in 50 mM Tris-HCl/5 mM EDTA. The final total iodoproxifan concentration in the reactions is 1 nM. The cold iodoproxifan is included at 0.975 nM and the ^125I-iodoproxyfan is included at 0.025 nM final concentration. The reactions were terminated by filtration thru GF/B plates (pretreated with 0.3% polyethylenimine) on the cell harvester. The plates were washed 5 times with buffer. Nonspecific binding was defined in the presence of 100 μM histamine Inhibitory concentration (responsible for 50% inhibition of maximal effect, IC50) values were determined by a single site curve-fitting program (GraphPad, San Diego, Calif.) and converted to Ki values based on a ^125I-iodoproxyfan dissociation constant (Kd) of 1 nM.

Data set [2] has as its target T2, human Serotonin 5-HT6 receptor (Homo sapiens, UniProt P50406).
T2 construct: expressed in transfected cells; host or cells: HEK cells
The data set can be described thus: In vitro binding affinity for human 5-HT6 receptor ([3H]LSD, membranes of transfected HEK cells). The following applies: human 5-HT6, [3H]Lysergic acid diethylamide 2 nM, HEK cell membranes; read-out: pIC50 Values (5-HT6) (converted). Here is the method:
D. Pharmacology In vitro Binding Affinity for Human 5-HT6 Receptor
Frozen membranes of human Serotonin 5-HT6 receptor-transfected HEK cells were thawed, briefly homogenized using an Ultra-Turrax T25 homogeniser and diluted in 50 mM Tris-HCl assay buffer containing 10 mM MgCl2, 1 mM EDTA and 10 μM Pargyline (adjusted to pH 7.4 with HCl) to an appropriate protein concentration optimized for specific and non-specific binding. Radioligand [^3H]Lysergic acid diethylamide (Perkin Elmer, specific activity ˜80 Ci/mmol) was diluted in assay buffer at a concentration of 20 nM. Radioligand (20 μl), along with 40 μl of either the 10% DMSO control, Methiothepine (10^−5M final concentration for measurement of non specific binding), or compound of interest, was then incubated with 70 μl of the prepared membrane solution and 70 μl of WGA (wheat germ agglutinin) coated PVT (polyvinyltoluidene) beads (0.25 mg/well final concentration). The final concentration of radioligand per well was 2 nM. After shaking for 24 h. at RT, plates were counted in a Topcount™ scintillation counter. Percentage specific binding and competition binding curves were calculated using S-Plus software (Insightful).

In data set [3] the target is T1, human H3 receptor. The following applies: used to convert IC50 to Ki, read-out: dissociation constant (Kd) of radioligand; cited from earlier work.

T2 sequence (P50406 whole entry): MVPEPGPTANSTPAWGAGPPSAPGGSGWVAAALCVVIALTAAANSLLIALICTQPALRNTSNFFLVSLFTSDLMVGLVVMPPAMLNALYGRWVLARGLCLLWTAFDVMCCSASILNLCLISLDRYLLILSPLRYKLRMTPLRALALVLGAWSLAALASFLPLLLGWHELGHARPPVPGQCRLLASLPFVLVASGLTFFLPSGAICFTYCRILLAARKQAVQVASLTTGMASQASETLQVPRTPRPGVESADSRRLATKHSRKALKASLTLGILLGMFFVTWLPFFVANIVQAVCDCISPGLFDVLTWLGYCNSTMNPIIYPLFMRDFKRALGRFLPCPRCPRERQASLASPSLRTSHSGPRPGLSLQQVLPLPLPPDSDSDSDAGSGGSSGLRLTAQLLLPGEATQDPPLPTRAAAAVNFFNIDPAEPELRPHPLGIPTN
T1 sequence (Q9Y5N1 whole entry): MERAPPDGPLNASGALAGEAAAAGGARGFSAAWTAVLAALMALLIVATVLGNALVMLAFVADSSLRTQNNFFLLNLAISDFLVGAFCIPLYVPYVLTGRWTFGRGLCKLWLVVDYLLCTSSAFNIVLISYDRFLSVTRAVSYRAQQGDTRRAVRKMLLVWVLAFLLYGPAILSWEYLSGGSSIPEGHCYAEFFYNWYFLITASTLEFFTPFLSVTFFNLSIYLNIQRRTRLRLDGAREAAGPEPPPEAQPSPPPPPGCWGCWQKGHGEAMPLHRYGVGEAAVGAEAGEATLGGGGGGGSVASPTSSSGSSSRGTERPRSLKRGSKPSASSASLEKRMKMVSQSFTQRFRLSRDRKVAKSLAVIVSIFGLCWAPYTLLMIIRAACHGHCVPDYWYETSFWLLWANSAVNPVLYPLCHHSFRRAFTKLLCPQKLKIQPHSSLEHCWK

A word on the melting point: it is the temperature of the solid-liquid transition. For `Fc1ccc(Nc2cc(N3CCNCC3)nnc2C(F)(F)F)cc1` (as salt: HCl) (hydrate or solvate) [Co. No. 16, N-(4-fluorophenyl)-6-(1-piperazinyl)-3-(trifluoromethyl)-4-pyridazinamine.2.5HCl .0.5H2O], the melting point is over 300 °C.
`OC(c1ccccc1)c1cc(N2CCNCC2)nnc1C(F)(F)F` (stereo not drawn) (as salt: HCl) [Co. No. 5, alpha-phenyl-6-(1-piperazinyl)-3-(trifluoromethyl)-4-pyridazinemethanol] yielded a melting point of 199.7 °C.
Same read-out and setting: the figure for `FC(F)(F)c1nnc(N2CCN(Cc3ccncc3)CC2)cc1/C=C/c1ccccc1` (as salt: trifluoroacetate) [Co. No. 17, 4-[(E)-2-phenylethenyl]-6-[4-(4-pyridinylmethyl)-1-piperazinyl]-3-(trifluoromethyl)-pyridazine] is 163.9 °C.
As a reminder, the Ki is the equilibrium dissociation constant of an inhibitor or competing ligand from its target. `Fc1ccc(Oc2cc(N3CCNCC3)nnc2C(F)(F)F)cc1` [Co. No. 1, 4-(4-fluorophenoxy)-6-(1-piperazinyl)-3-(trifluoromethyl)-pyridazine] displayed a melting point of 132.5 °C. Also, the Ki in data set [1] was 5000 nM. The IC50 in data set [2] is 251 nM.
Take `Fc1ccc(Nc2cc(N3CCNCC3)nnc2C(F)(F)F)cc1` [Co. No. 2, N-(4-fluorophenyl)-6-(1-piperazinyl)-3-(trifluoromethyl)-4-pyridazinamine]: the IC50 in data set [2] was 63.1 nM.
For the molecule `FC(F)(F)c1nnc(N2CCNCC2)cc1Cc1ccccc1` [Co. No. 3, 4-(phenylmethyl)-6-(1-piperazinyl)-3-(trifluoromethyl)-pyridazine], the melting point was 133.8 °C. This molecule yielded an inhibition constant Ki in data set [1] of over 10000 nM. In addition, the IC50 in data set [2] was 126 nM.
In turn, `O=C(c1ccccc1)c1cc(N2CCNCC2)nnc1C(F)(F)F` [Co. No. 4, phenyl[6-(1-piperazinyl)-3-(trifluoromethyl)-4-pyridazinyl]-methanone] registered a melting point of 289.5 °C. The inhibition constant Ki in data set [1] was over 10000 nM. The IC50 in data set [2] was 126 nM.
In the case of `OC(c1ccccc1)c1cc(N2CCNCC2)nnc1C(F)(F)F` (stereo not drawn) [Co. No. 5, alpha-phenyl-6-(1-piperazinyl)-3-(trifluoromethyl)-4-pyridazinemethanol], the inhibition constant (Ki) in data set [1] was over 10000 nM. Moreover, the IC50 in data set [2] was 631 nM.
As for `O=S(=O)(c1ccccc1)c1cc(N2CCNCC2)nnc1C(F)(F)F` [Co. No. 6, 4-(phenylsulfonyl)-6-(1-piperazinyl)-3-(trifluoromethyl)-pyridazine], the melting point worked out at 180.3 °C. The same molecule returned a Ki in data set [1] of over 10000 nM. For the same molecule, the IC50 in data set [2] is 251 nM.
In data set [1], `Fc1ccc(/C=C\c2cc(N3CCNCC3)nnc2C(F)(F)F)cc1` [Co. No. 7, 4-[(Z)-2-(4-fluorophenyl)ethenyl]-6-(1-piperazinyl)-3-(trifluoromethyl)-pyridazine] had an inhibition constant Ki of over 10000 nM. The IC50 in data set [2] is 158 nM.
In the case of `Fc1ccc(/C=C/c2cc(N3CCNCC3)nnc2C(F)(F)F)cc1` [Co. No. 8, 4-[(E)-2-(4-fluorophenyl)ethenyl]-6-(1-piperazinyl)-3-(trifluoromethyl)-pyridazine], the melting point amounted to 180.6 °C. In data set [1], the inhibitory constant (Ki) is over 10000 nM. Also, in data set [2], the IC50 was 63.1 nM.
The molecule `Fc1ccc(C#Cc2cc(N3CCNCC3)nnc2C(F)(F)F)cc1` [Co. No. 9, 4-[(4-fluorophenyl)ethynyl]-6-(1-piperazinyl)-3-(trifluoromethyl)-pyridazine] gave a melting point of 251.6 °C. Further, the Ki in data set [1] is over 10000 nM. In addition, the IC50 in data set [2] is 1580 nM.
In the case of `CN1CCN(c2cc(/C=C/c3ccccc3)c(C(F)(F)F)nn2)CC1` [Co. No. 11, 6-(4-methyl-1-piperazinyl)-4-[(E)-2-phenylethenyl]-3-(trifluoromethyl)-pyridazine], the melting point came out at 135.8 °C. This molecule gave a Ki in data set [1] of over 10000 nM. In addition, in data set [2], the IC50 is 398 nM.
The molecule `CN1CCN(c2cc(C(=O)c3ccccc3)c(C(F)(F)F)nn2)CC1` [Co. No. 13, [6-(4-methyl-1-piperazinyl)-3-(trifluoromethyl)-4-pyridazinyl]phenyl-methanone] came in with a melting point of 136.3 °C. The Ki in data set [1] was over 10000 nM. Also, in data set [2], the IC50 is 158 nM.
Take `Fc1ccc(CNc2cc(N3CCNCC3)nnc2C(F)(F)F)cc1` [Co. No. 14, N-[(4-fluorophenyl)methyl]-6-(1-piperazinyl)-3-(trifluoromethyl)-4-pyridazinamine]: the Ki in data set [1] was over 10000 nM. Moreover, the IC50 in data set [2] was 631 nM.
For the molecule `Fc1ccc(COc2cc(N3CCNCC3)nnc2C(F)(F)F)cc1` [Co. No. 15, 4-[(4-fluorophenyl)methoxy]-6-(1-piperazinyl)-3-(trifluoromethyl)-pyridazine], the melting point turned out to be 142.1 °C. Besides, the Ki in data set [1] was over 10000 nM. Also, in data set [2], the IC50 is 398 nM.
As to `Fc1ccc(Nc2cc(N3CCNCC3)nnc2C(F)(F)F)cc1` [Co. No. 16, N-(4-fluorophenyl)-6-(1-piperazinyl)-3-(trifluoromethyl)-4-pyridazinamine.2.5HCl .0.5H2O], the inhibition constant (Ki) in data set [1] was over 10000 nM.
For the molecule `FC(F)(F)c1nnc(N2CCN(Cc3ccncc3)CC2)cc1/C=C/c1ccccc1` [Co. No. 17, 4-[(E)-2-phenylethenyl]-6-[4-(4-pyridinylmethyl)-1-piperazinyl]-3-(trifluoromethyl)-pyridazine], the inhibitory constant (Ki) in data set [1] was over 10000 nM. Further, the IC50 in data set [2] was 1260 nM.
Molecule `FC(F)(F)c1nnc(N2CCN(Cc3ccccn3)CC2)cc1/C=C/c1ccccc1` [Co. No. 18, 4-[(E)-2-phenylethenyl]-6-[4-(2-pyridinylmethyl)-1-piperazinyl]-3-(trifluoromethyl)-pyridazine] showed a melting point of 121.4 °C. In addition, the inhibitory constant (Ki) in data set [1] is over 10000 nM. Besides, the IC50 in data set [2] is 6310 nM.
By Kd is commonly meant the free concentration of one partner at which half of the binding sites on the other are occupied at equilibrium, for simple one-to-one binding. `Ic1ccc(COCCCc2cnc[nH]2)cc1` [^125I-iodoproxyfan]: in data set [3], the Kd is 1 nM.
